Source: patent US6936585B2, “Corticotropin releasing factor 2 receptor agonists” (priority 2002, dated 2005)
Where two headings read alike, the source gives them in different places. Peptide text beside a SMILES is read from it.

Key:
[1] = biological target: T1, CRF2R (Homo sapiens, UniProt Q13324); assay: CRF2R agonist activation (EC50 / Emax), called comparative CRF binding; type: cell-based; settings: for Emax: read-out: CRF2R Emax
T1 sequence (Q13324 1-411): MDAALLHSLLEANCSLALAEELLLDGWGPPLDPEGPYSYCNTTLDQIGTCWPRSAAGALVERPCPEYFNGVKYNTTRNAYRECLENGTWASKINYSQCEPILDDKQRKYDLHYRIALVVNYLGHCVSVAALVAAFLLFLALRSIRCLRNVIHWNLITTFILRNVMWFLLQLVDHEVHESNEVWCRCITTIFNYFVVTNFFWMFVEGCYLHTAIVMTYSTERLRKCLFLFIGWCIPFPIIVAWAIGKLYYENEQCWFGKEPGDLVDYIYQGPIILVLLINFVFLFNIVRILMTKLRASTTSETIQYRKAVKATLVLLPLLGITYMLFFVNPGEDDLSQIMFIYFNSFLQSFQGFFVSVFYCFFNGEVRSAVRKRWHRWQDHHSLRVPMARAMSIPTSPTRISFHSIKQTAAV
Method in brief: (§1)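 Receptor-expressing cells are contacted with test peptide or the vehicle it is dissolved in. Lysates are then assayed for cAMP, or expression of a CRE-coupled reporter is quantitated. Engineered cells carrying receptor-G-protein fusions may replace full-length receptors.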

[2] = biological target: T2, CRF1R (Homo sapiens, UniProt P34998); assay: CRF1R agonist activation (EC50 / Emax), called comparative CRF binding; type: cell-based; settings: for Emax: read-out: CRF1R Emax
T2 sequence (P34998 24-415): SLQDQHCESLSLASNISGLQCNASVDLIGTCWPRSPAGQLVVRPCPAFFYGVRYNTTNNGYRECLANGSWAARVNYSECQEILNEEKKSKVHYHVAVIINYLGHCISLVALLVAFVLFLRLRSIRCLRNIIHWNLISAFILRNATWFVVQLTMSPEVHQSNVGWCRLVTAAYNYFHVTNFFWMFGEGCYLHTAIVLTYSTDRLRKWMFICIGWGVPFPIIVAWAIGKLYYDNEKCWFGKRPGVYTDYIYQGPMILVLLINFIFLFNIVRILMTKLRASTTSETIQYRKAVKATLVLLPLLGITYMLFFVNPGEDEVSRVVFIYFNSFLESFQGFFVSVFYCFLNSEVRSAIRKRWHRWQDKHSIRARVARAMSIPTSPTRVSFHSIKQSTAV
Method in brief: as §1

**Q.** What does the source list for CC[C@H](C)[C@H](N)C(=O)N[C@H](C(=O)N[C@@H](CC(C)C)C(=O)N[C@@H](CO)C(=O)N[C@@H](CC(C)C)C(=O)N[C@@H](CC(=O)O)C(=O)N[C@H](C(=O)N1CCC[C@H]1C(=O)N[C@H](C(=O)NCC(=O)N[C@@H](CC(C)C)C(=O)N[C@@H](CC(C)C)C(=O)N[C@@H](CCC(N)=O)C(=O)N[C@H](C(=O)N[C@@H](CC(C)C)C(=O)N[C@H](C(=O)N[C@@H](CCC(=O)O)C(=O)N[C@H](C(=O)N[C@@H](CCC(=O)O)C(=O)N[C@@H](CCCCN)C(=O)N[C@@H](CCC(N)=O)C(=O)N[C@@H](CCC(=O)O)C(=O)N[C@@H](CCCCN)C(=O)N[C@@H](CCC(=O)O)C(=O)N[C@@H](CCCCN)C(=O)N[C@@H](CCC(N)=O)C(=O)N[C@@H](CCC(N)=O)C(=O)N[C@@H](C)C(=O)N[C@@H](C)C(=O)N[C@@H](CC(N)=O)C(=O)N[C@@H](CC(N)=O)C(=O)N[C@@H](C)C(=O)N[C@@H](CCCNC(=N)N)C(=O)N[C@H](C(=O)N[C@@H](CC(C)C)C(=O)N[C@@H](C)C(=O)N[C@@H](CCCNC(=N)N)C(=O)N[C@H](C(N)=O)C(C)C)[C@@H](C)CC)[C@@H](C)CC)[C@@H](C)CC)[C@@H](C)CC)[C@@H](C)CC)C(C)C)C(C)C [compound 166] (H-IVLSLDVPIGLLQILIEIEKQEKEKQQAANNARILARV-NH2; N-terminus assumed)?
**A.** EC50 [1]: 3.7 nM; Emax [1]: 99%; EC50 ([2]; CRF1R EC50): 437 nM; Emax [2]: 95%

**Q.** How did the Emax [1] turn out when CC[C@H](C)[C@H](N)C(=O)N[C@H](C(=O)N[C@@H](CC(C)C)C(=O)N[C@@H](CO)C(=O)N[C@@H](CC(C)C)C(=O)N[C@@H](CC(=O)O)C(=O)N[C@H](C(=O)N1CCC[C@H]1C(=O)N[C@H](C(=O)NCC(=O)N[C@@H](CC(C)C)C(=O)N[C@@H](CC(C)C)C(=O)N[C@@H](CCC(N)=O)C(=O)N[C@H](C(=O)N[C@@H](CC(C)C)C(=O)N[C@@H](CC(C)C)C(=O)N[C@@H](CCC(=O)O)C(=O)N[C@@H](CCC(N)=O)C(=O)N[C@@H](CCC(=O)O)C(=O)N[C@@H](CCCCN)C(=O)N[C@@H](CCC(N)=O)C(=O)N[C@@H](CCC(=O)O)C(=O)N[C@@H](CCCCN)C(=O)N[C@@H](CCC(=O)O)C(=O)N[C@@H](CCCCN)C(=O)N[C@@H](CCC(N)=O)C(=O)N[C@@H](CCC(N)=O)C(=O)N[C@@H](C)C(=O)N[C@H](C(=O)N[C@H](C(=O)N[C@@H](CC(N)=O)C(=O)N[C@@H](C)C(=O)N[C@@H](CCCNC(=N)N)C(=O)N[C@H](C(=O)N[C@@H](CC(C)C)C(=O)N[C@@H](C)C(=O)N[C@@H](CCCNC(=N)N)C(=O)N[C@H](C(N)=O)C(C)C)[C@@H](C)CC)[C@@H](C)O)[C@@H](C)O)[C@@H](C)CC)[C@@H](C)CC)C(C)C)C(C)C [compound 167] (H-IVLSLDVPIGLLQILLEQEKQEKEKQQATTNARILARV-NH2; N-terminus assumed) was run?
**A.** 100%

**Q.** And the Emax [2]?
**A.** 15%

**Q.** With CC[C@H](C)[C@H](N)C(=O)N[C@H](C(=O)N[C@@H](CC(C)C)C(=O)N[C@@H](CO)C(=O)N[C@@H](CC(C)C)C(=O)N[C@@H](CC(=O)O)C(=O)N[C@H](C(=O)N1CCC[C@H]1C(=O)N[C@H](C(=O)NCC(=O)N[C@@H](CC(C)C)C(=O)N[C@@H](CC(C)C)C(=O)N[C@@H](CCC(N)=O)C(=O)N[C@H](C(=O)N[C@@H](CC(C)C)C(=O)N[C@H](C(=O)N[C@@H](CCC(=O)O)C(=O)N[C@H](C(=O)N[C@@H](CCC(=O)O)C(=O)N[C@@H](CCCCN)C(=O)N[C@@H](CCC(N)=O)C(=O)N[C@@H](CCC(=O)O)C(=O)N[C@@H](CCCCN)C(=O)N[C@@H](CCC(=O)O)C(=O)N[C@@H](CCCCN)C(=O)N[C@@H](CCC(N)=O)C(=O)N[C@@H](CCC(N)=O)C(=O)N[C@@H](C)C(=O)N[C@@H](C)C(=O)N[C@H](C(=O)N[C@H](C(=O)N[C@@H](CC(N)=O)C(=O)N[C@@H](C)C(=O)N[C@@H](CCCNC(=N)N)C(=O)N[C@H](C(=O)N[C@@H](CC(C)C)C(=O)N[C@@H](C)C(=O)N[C@@H](CCCNC(=N)N)C(=O)N[C@H](C(N)=O)C(C)C)[C@@H](C)CC)[C@@H](C)O)[C@@H](C)O)[C@@H](C)CC)[C@@H](C)CC)[C@@H](C)CC)[C@@H](C)CC)C(C)C)C(C)C [compound 168] (H-IVLSLDVPIGLLQILIEIEKQEKEKQQAATTNARILARV-NH2; N-terminus assumed) as the compound, how does the EC50 ([1]; read-out: CRF2R EC50) read?
**A.** 4.9 nM

**Q.** And the Emax [1]?
**A.** 75%

**Q.** What about the EC50 ([2]; read-out: CRF1R EC50) of the same compound?
**A.** ≥ 1000 nM

**Q.** And the Emax [2]?
**A.** 52%

**Q.** Which Emax [1] does the source give for CC[C@H](C)[C@H](NC(=O)[C@H](C)NC(=O)[C@H](CC(N)=O)NC(=O)[C@H](CCC(N)=O)NC(=O)[C@H](CCC(=O)O)NC(=O)[C@H](C)NC(=O)[C@H](CCCNC(=N)N)NC(=O)[C@H](CCC(=O)O)NC(=O)[C@H](CCCNC(=N)N)NC(=O)[C@H](CCC(N)=O)NC(=O)[C@H](CO)NC(=O)[C@H](CCC(N)=O)NC(=O)[C@@H](NC(=O)[C@H](CCCNC(=N)N)NC(=O)[C@H](C)NC(=O)[C@H](CC(C)C)NC(=O)[C@H](CCC(=O)O)NC(=O)[C@H](CC(C)C)NC(=O)[C@H](CC(C)C)NC(=O)[C@@H](NC(=O)[C@H](CCCNC(=N)N)NC(=O)[C@H](CC(C)C)NC(=O)[C@H](CC(C)C)NC(=O)[C@H](Cc1ccc(O)cc1)NC(=O)[C@@H](NC(=O)[C@@H]1CCCN1C(=O)[C@H](CC(C)C)NC(=O)[C@H](CC(=O)O)NC(=O)[C@@H](NC(=O)[C@H](CO)NC(=O)[C@H](CC(C)C)NC(=O)[C@H](CO)NC(=O)[C@@H]1CCCN1C(=O)[C@H](CC(N)=O)NC(=O)[C@@H](N)CC(=O)O)[C@@H](C)CC)[C@@H](C)O)[C@@H](C)O)[C@@H](C)O)C(=O)N[C@H](C(=O)N[C@@H](Cc1ccccc1)C(=O)N[C@@H](C)C(=O)N[C@@H](CO)C(=O)N[C@H](C(N)=O)C(C)C)[C@@H](C)CC [compound 173] (H-DNPSLSIDLPTYLLRTLLELARTQSQRERAEQNAIIFASV-NH2) here?
**A.** 65.2%

**Q.** What about the Emax [2] of the same compound?
**A.** 6.05%

**Q.** What does the source list for CC[C@H](C)[C@H](NC(=O)[C@H](C)NC(=O)[C@H](CC(N)=O)NC(=O)[C@H](CCC(N)=O)NC(=O)[C@H](CCC(=O)O)NC(=O)[C@H](C)NC(=O)[C@H](CCCNC(=N)N)NC(=O)[C@H](CCC(=O)O)NC(=O)[C@H](CCCNC(=N)N)NC(=O)[C@H](CCC(N)=O)NC(=O)[C@H](CO)NC(=O)[C@H](CCC(N)=O)NC(=O)[C@@H](NC(=O)[C@H](CCCNC(=N)N)NC(=O)[C@H](C)NC(=O)[C@H](CC(C)C)NC(=O)[C@H](CCC(=O)O)NC(=O)[C@H](CC(C)C)NC(=O)[C@H](CC(C)C)NC(=O)[C@@H](NC(=O)[C@H](CCCNC(=N)N)NC(=O)[C@H](CC(C)C)NC(=O)[C@H](CC(C)C)NC(=O)[C@H](CC(C)C)NC(=O)[C@H](CC(C)C)NC(=O)[C@@H]1CCCN1C(=O)[C@H](CC(C)C)NC(=O)[C@H](CC(=O)O)NC(=O)[C@@H](NC(=O)[C@H](CO)NC(=O)[C@H](CC(C)C)NC(=O)[C@H](CO)NC(=O)[C@@H]1CCCN1C(=O)[C@H](CC(N)=O)NC(=O)[C@@H](N)CC(=O)O)[C@@H](C)CC)[C@@H](C)O)[C@@H](C)O)C(=O)N[C@H](C(=O)N[C@@H](Cc1ccccc1)C(=O)N[C@@H](C)C(=O)N[C@@H](CO)C(=O)N[C@H](C(N)=O)C(C)C)[C@@H](C)CC [compound 174] (H-DNPSLSIDLPLLLLRTLLELARTQSQRERAEQNAIIFASV-NH2; N-terminus assumed)?
**A.** Emax [1]: 97.2%; Emax [2]: 29.1%

**Q.** How did the EC50 ([1]; read-out: CRF2R EC50) turn out when CC[C@H](C)[C@H](NC(=O)[C@H](C)NC(=O)[C@H](CC(N)=O)NC(=O)[C@H](CCC(N)=O)NC(=O)[C@H](CCC(=O)O)NC(=O)[C@H](C)NC(=O)[C@H](CCCNC(=N)N)NC(=O)[C@H](CCC(=O)O)NC(=O)[C@H](CCCNC(=N)N)NC(=O)[C@H](CCC(N)=O)NC(=O)[C@H](CO)NC(=O)[C@H](CCC(N)=O)NC(=O)[C@@H](NC(=O)[C@H](CCCNC(=N)N)NC(=O)[C@H](C)NC(=O)[C@H](CC(C)C)NC(=O)[C@H](CCC(=O)O)NC(=O)[C@H](CC(C)C)NC(=O)[C@H](CC(C)C)NC(=O)[C@@H](NC(=O)[C@H](CCCNC(=N)N)NC(=O)[C@H](CC(C)C)NC(=O)[C@H](CC(C)C)NC(=O)[C@@H](NC(=O)[C@H](CC(C)C)NC(=O)[C@@H]1CCCN1C(=O)[C@H](CC(C)C)NC(=O)[C@H](CC(=O)O)NC(=O)[C@@H](NC(=O)[C@H](CO)NC(=O)[C@H](CC(C)C)NC(=O)[C@H](CO)NC(=O)[C@@H]1CCCN1C(=O)[C@H](CC(N)=O)NC(=O)[C@@H](N)CC(=O)O)[C@@H](C)CC)[C@@H](C)CC)[C@@H](C)O)[C@@H](C)O)C(=O)N[C@H](C(=O)N[C@@H](Cc1ccccc1)C(=O)N[C@@H](C)C(=O)N[C@@H](CO)C(=O)N[C@H](C(N)=O)C(C)C)[C@@H](C)CC [compound 175] (H-DNPSLSIDLPLILLRTLLELARTQSQRERAEQNAIIFASV-NH2; N-terminus assumed) was run?
**A.** 5.42 nM

**Q.** What about the Emax [1] of the same compound?
**A.** 92.2%

**Q.** What about the EC50 ([2]; read-out: CRF1R EC50) of the same compound?
**A.** ≥ 1000 nM

**Q.** And the Emax [2]?
**A.** 34.8%
